Source: patent US12661410B2, “Compounds for targeted degradation of RET” (C4 Therapeutics, Inc., priority 2020, dated 2026)
Changes are numbered by the printed parent chain. Like-named read-outs stand apart in the source and are kept apart here.

How the values were obtained:
RET (658-1114) = biological target: T1, RET (658-1114) (Homo sapiens, UniProt P07949); assay: HiBiT-Degradation, RET wild-type degradation assay (Nano-Glo HiBiT Lytic), 293T.144 cells; format: cell-based; conditions: for Emax / DC50: 6.0 hours
T1 construct: 658-1114; expressed in transfected cells; host or cells: 293T.144 (293T cells, generated in-house)
T1 sequence (P07949 658-1114): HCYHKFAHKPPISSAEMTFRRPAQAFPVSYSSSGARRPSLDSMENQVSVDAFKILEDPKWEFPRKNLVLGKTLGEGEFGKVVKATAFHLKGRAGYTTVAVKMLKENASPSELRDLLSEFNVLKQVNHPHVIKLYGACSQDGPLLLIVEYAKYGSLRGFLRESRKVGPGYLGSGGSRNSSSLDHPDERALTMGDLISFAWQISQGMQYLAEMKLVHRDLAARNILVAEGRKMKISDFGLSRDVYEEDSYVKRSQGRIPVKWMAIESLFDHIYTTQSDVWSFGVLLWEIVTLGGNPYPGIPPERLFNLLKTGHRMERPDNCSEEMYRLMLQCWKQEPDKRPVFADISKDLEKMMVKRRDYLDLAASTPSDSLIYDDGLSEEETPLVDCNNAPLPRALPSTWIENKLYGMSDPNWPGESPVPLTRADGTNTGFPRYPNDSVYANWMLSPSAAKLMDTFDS
In short: (§1)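 HEK293T lines expressing HiBiT-tagged RET kinase domain, wild-type (293T.144) or G810R (293T.165), treated 6 h in duplicate, 11-point half-log series from 10 μM top. Lytic HiBiT luminescence read; DC50 and Emax (% protein remaining) from dose-response curves.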

RET(KD: 658-1114 G810R) = biological target: T2, RET(KD: 658-1114 G810R) (Homo sapiens, UniProt P07949, G810R); assay: HiBiT-Degradation, RET G810R degradation assay (Nano-Glo HiBiT Lytic), 293T.165 cells; format: cell-based; conditions: for Emax / DC50: 6.0 hours
T2 construct: 658-1114; expressed in transfected cells; host or cells: 293T.165 (293T cells, generated in-house)
T2 sequence (P07949 658-1114 G810R): T1 sequence (P07949 658-1114) with G153R
In short: as §1

[1] = % remaining protein, read-out: 293T.144 RET (658-1114) 6.0 hours (Emax)
[2] = half-maximal degradation concentration, read-out: 293T.144 RET (658-1114) 6.0 hours (DC50)
[3] = % remaining protein, read-out: 293T.165 RET(KD: 658-1114 G810R) 6.0 hours (Emax)
[4] = half-maximal degradation concentration, read-out: 293T.165 RET(KD: 658-1114 G810R) 6.0 hours (DC50)
[5] = HiBiT-Degradation, read-out: 293T.144 RET (658-1114) 6.0 hours (DC50)
[6] = HiBiT-Degradation, read-out: 293T.144 RET (658-1114) 6.0 hours (Emax)
[7] = HiBiT-Degradation, read-out: 293T.165 RET(KD: 658-1114 G810R) 6.0 hours (DC50)

CCC1(C(=O)NC(C)C)CCN(c2ccc(-c3cc(-c4cnn([C@H]5CC[C@H](N6CCC(c7ccc(N[C@H]8CCC(=O)NC8=O)cc7F)CC6)CC5)c4)cn4ncc(C#N)c34)cn2)CC1 (single isomer, unassigned) [Compound 194] was tested. Which “293T.144 RET (658-1114) 6.0 hours (IP) [nM]” value (RET (658-1114)) did it give?
Its value is “++++ (<50 nM = ++++)”.

What about the Emax (RET (658-1114); [1]) of the same molecule?
The Emax was less than 30%.

What about the DC50 (RET (658-1114); [2]) of the same molecule?
The DC50 was less than 50 nM.

What about the “293T.165 RET(KD: 658-1114 G810R) 6.0 hours (IP) [nM]” value (RET(KD: 658-1114 G810R)) of the same molecule?
Its value is “++++ (<50 nM = ++++)”.

What about the Emax (RET(KD: 658-1114 G810R); [3]) of the same molecule?
The Emax was less than 30%.

And the DC50 (RET(KD: 658-1114 G810R); [4])?
The DC50 was less than 50 nM.

CCC1(C(=O)Nc2ccccc2)CCN(c2ccc(-c3nc(-c4cnn(C5CCN(C(=O)CC6(O)CCN(c7ccc(NC8CCC(=O)NC8=O)cc7Cl)CC6)CC5)c4)cn4ncc(C#N)c34)cn2)CC1 (stereo not drawn) [Compound 98, 1-[5-[6-[1-[1-[2-[1-[2-chloro-4-[(2,6-dioxo-3-piperidyl)amino]phenyl]-4-hydroxy-4-piperidyl]acetyl]-4-piperidyl]pyrazol-4-yl]-3-cyano-pyrazolo[1,5-a]pyrazin-4-yl]-2-pyridyl]-4-ethyl-N-phenyl-piperidine-4-carboxamide] was tested. Which “293T.144 RET (658-1114) 6.0 hours (IP) [nM]” value (RET (658-1114)) did it give?
The value was “++++ (<50 nM = ++++)”.

And the Emax (RET (658-1114); [1])?
Its Emax is less than 30%.

And the DC50 (RET (658-1114); [2])?
The DC50 was less than 50 nM.

What about the “293T.165 RET(KD: 658-1114 G810R) 6.0 hours (IP) [nM]” value (RET(KD: 658-1114 G810R)) of the same molecule?
The value was “++++ (<50 nM = ++++)”.

And the Emax (RET(KD: 658-1114 G810R); [3])?
Its Emax is less than 30%.

And the DC50 (RET(KD: 658-1114 G810R); [4])?
Its DC50 is less than 100 nM.

With CCC1(C(=O)NC(C)(C)C)CCN(c2ccc(-c3nc(-c4cnn([C@H]5CC[C@H](N6CCC(c7ccc(N[C@@H]8CCC(=O)NC8=O)cc7F)CC6)CC5)c4)cn4ncc(C#N)c34)cn2)CC1 (single isomer, unassigned) [Compound 146] as the molecule, how does the “293T.144 RET (658-1114) 6.0 hours (IP) [nM]” value (RET (658-1114)) read?
The value was “++++ (<50 nM = ++++)”.

What about the Emax (RET (658-1114); [1]) of the same molecule?
The Emax was less than 30%.

And the DC50 (RET (658-1114); [2])?
Its DC50 is less than 50 nM.

And the “293T.165 RET(KD: 658-1114 G810R) 6.0 hours (IP) [nM]” value (RET(KD: 658-1114 G810R))?
The value was “++++ (<50 nM = ++++)”.

What about the Emax (RET(KD: 658-1114 G810R); [3]) of the same molecule?
Its Emax is less than 30%.

What about the DC50 (RET(KD: 658-1114 G810R); [4]) of the same molecule?
Its DC50 is less than 50 nM.

Which results are given for CCC1(C(=O)NC2CCC2)CCN(c2ccc(-c3nc(-c4cnn(C5CCN(C(=O)CC6(O)CCN(c7ccc(NC8CCC(=O)NC8=O)cc7F)CC6)CC5)c4)cn4ncc(C#N)c34)cn2)CC1 (stereo not drawn) [Compound 81, 1-[5-[3-cyano-6-[1-[1-[2-[1-[4-[(2,6-dioxo-3-piperidyl)amino]-2-fluoro-phenyl]-4-hydroxy-4-piperidyl]acetyl]-4-piperidyl]pyrazol-4-yl]pyrazolo[1,5-a]pyrazin-4-yl]-2-pyridyl]-N-cyclobutyl-4-ethyl-piperidine-4-carboxamide]?
HiBiT-Degradation 293T.144 RET (658-1114) 6.0 hours (IP) [nM] (RET (658-1114); RET wild-type): ++++ (< 50 nM = ++++); DC50 (RET (658-1114); RET wild-type, read-out: HiBiT-Degradation 293T.144 RET (658-1114) 6.0 hours (DC50)): < 50 nM; Emax (RET (658-1114); RET wild-type, read-out: HiBiT-Degradation 293T.144 RET (658-1114) 6.0 hours (Emax)): < 30%; Emax (RET(KD: 658-1114 G810R); [3]): < 30%; DC50 (RET(KD: 658-1114 G810R); [4]): < 50 nM; HiBiT-Degradation 293T.165 RET(KD: 658-1114 G810R) 6.0 hours (IP) [nM] (RET(KD: 658-1114 G810R); RET G810R): ++++ (< 50 nM = ++++); DC50 (RET(KD: 658-1114 G810R); RET G810R, read-out: HiBiT-Degradation 293T.165 RET(KD: 658-1114 G810R) 6.0 hours (DC50)): < 50 nM; Emax (RET(KD: 658-1114 G810R); RET G810R, read-out: HiBiT-Degradation 293T.165 RET(KD: 658-1114 G810R) 6.0 hours (Emax)): < 30%

Which “293T.144 RET (658-1114) 6.0 hours (IP) [nM]” value (RET (658-1114); HiBiT-Degradation) does the source give for N#Cc1cnn2cc(-c3ccc(N4CCN(C(=O)CN5CCC(c6ccc(NC7CCC(=O)NC7=O)cc6)CC5)CC4)cc3)cc(-c3ccc(N4C[C@H]5CC[C@@H](C4)O5)nc3)c12 (stereo partly drawn) [Compound 19, 4-(6-((1R,5S)-8—Oxa-3-azabicyclo[3.2.1]octan-3-yl)pyridin-3-yl)-6-(4-(4-(2-(4-(4-((2,6-dioxopiperidin-3-yl)amino)phenyl)piperidin-1-yl)acetyl)piperazin-1-yl)phenyl)pyrazolo[1,5-a]pyridine-3-carbonitrile] here?
Its value is “++++ (< 50 nM = ++++)”.

And the DC50 (RET (658-1114); [5])?
Its DC50 is less than 50 nM.

And the Emax (RET (658-1114); [6])?
Its Emax is less than 30%.

And the Emax (RET(KD: 658-1114 G810R); [3])?
The Emax was less than 50%.

And the DC50 (RET(KD: 658-1114 G810R); [4])?
The DC50 was less than 100 nM.

And the “293T.165 RET(KD: 658-1114 G810R) 6.0 hours (Emax)” value (RET(KD: 658-1114 G810R); HiBiT-Degradation)?
The value was “+++ (<50% = +++)”.

What about the “293T.165 RET(KD: 658-1114 G810R) 6.0 hours (IP) [nM]” value (RET(KD: 658-1114 G810R); HiBiT-Degradation) of the same molecule?
Its value is “++++ (< 50 nM = ++++)”.

What about the DC50 (RET(KD: 658-1114 G810R); [7]) of the same molecule?
Its DC50 is less than 100 nM.

Which results are given for CC(=O)N1CCN(c2ccc(-c3cc(-c4ccc(N5CCN(C(=O)CN6CCC(c7ccc(NC8CCC(=O)NC8=O)cc7)CC6)CC5)cc4)cn4ncc(C#N)c34)cn2)CC1 (stereo not drawn) [Compound 41, 4-[6-(4-acetylpiperazin-1-yl)-3-pyridyl]-6-[4-[4-[2-[4-[4-[(2,6-dioxo-3-piperidyl)amino]phenyl]-1-piperidyl]acetyl]piperazin-1-yl]phenyl]pyrazolo[1,5-a]pyridine-3-carbonitrile]?
293T.144 RET (658-1114) 6.0 hours (IP) [nM] (RET (658-1114); HiBiT-Degradation): ++++ (< 50 nM = ++++); DC50 (RET (658-1114); [5]): < 50 nM; Emax (RET (658-1114); [6]): < 30%; Emax (RET(KD: 658-1114 G810R); [3]): < 50%; DC50 (RET(KD: 658-1114 G810R); [4]): < 100 nM; 293T.165 RET(KD: 658-1114 G810R) 6.0 hours (Emax) (RET(KD: 658-1114 G810R); HiBiT-Degradation): +++ (<50% = +++); 293T.165 RET(KD: 658-1114 G810R) 6.0 hours (IP) [nM] (RET(KD: 658-1114 G810R); HiBiT-Degradation): ++++ (< 50 nM = ++++); DC50 (RET(KD: 658-1114 G810R); [7]): < 100 nM
